Laboratory results from patent US9150617B2, “Immunoregulatory peptides and methods of use” (13 Therapeutics, Inc., priority 2009, dated 2015).

What was measured:
[1] = system: LPS-induced septic shock in mice; experiment: Mouse model of LPS-induced septic shock; format: in vivo
Experimental: BALB/c mice are injected i.p. with PBS, LPS at about 100 μg/mouse/250 μl, or about 100 μg LPS plus various doses of peptides. Serum is collected at about 2 and about 6 hours after treatment and evaluated for the pro-inflammatory cytokines MIP-2 and TNF-α by ELISA, and for soluble ICAM-1.

[2] = system: TNF-α secretion from RAW264.7 cells; experiment: Inhibition of TNF-α secretion from RAW264.7 cells stimulated with LPS (ELISA); format: cell-based, murine; conditions: LPS Stimulation, 1 ng/ml LPS
Experimental: (§1) RAW264.7 (murine monocyte/macrophage cells (American Type Culture Collection) were cultured at 37° C. in a 5% CO2 humidified incubator and grown in DMEM (Invitrogen Life Technologies) supplemented with 10% (v/v) heat-inactivated FCS, 1.5 mM L-glutamine, 100 U/ml penicillin, and 100 μg/ml streptomycin.
(§2) RAW264.7 cells were plated at 1.5×10^5 cells/well −3×10^5 cells/well in 48-well plates. After 24 hours, the cells were incubated with peptides at various concentrations at room temperature in triplicate either before, simultaneous with, or after activation with various PAMPs for 18 hours. Cell-free supernatants were analyzed for cytokines by ELISA, in quadruplicate. RAW264.7 cells were stimulated with either CpG-ODN (1 μg/ml or 1.25 μg/ml), LPS (about 1 ng/ml), Poly (I:C) (about 10 μg/ml), flagellin (about 5 ng/ml), or zymosan (about 10 μg/ml). Dose response curves were done with each PAMP to determine optimal stimulation concentration. For CpG-ODN stimulation, cells were incubated for 4 hours at 37° C., supernatants collected, and TNF-α measured by ELISA. Any cytokine involved in inflammatory disease mediated toll receptor signaling can be measured using similar assays.
(§3) Inhibition of TNF-α secretion by various T-peptides was examined. RAW264.7 cells were plated at 3×10^5 cells/well in 48-well plates. After 24 h the cells were incubated with peptide at various concentrations at room temperature in triplicate for 15 minutes and then stimulated with 1.25 ug/ml CpG-ODN or 1 ng/ml LPS. Cells were then incubated for 4 hours at 37° C., supernatants collected, and TNF-α measured by ELISA. Percent inhibition was calculated by comparing TNF-α secretion from cells incubated with peptide to control cells with no peptide treatment. The inhibition by peptides T3, T11, T21, T36, T37, T51 and T52 were compared to inhibition by an analogue of P13 having a sequence of nine arginine residues (SEQ ID NO: 379) at the C-terminus (P13-R^9; SEQ ID NO: 378). (Table 4).

[3] = system: toll-like receptor-dependent signaling; experiment: Cytokine secretion in response to TLR activation; format: cell-based
Experimental: as §2

[4] = system: TNF-α secretion from RAW264.7 cells; experiment: Inhibition of TNF-α secretion from RAW264.7 cells stimulated with CpG-ODN (ELISA); format: cell-based, murine; conditions: CpG stimulation, 1.25 ug/ml CpG-ODN
Experimental: as §1, §2
The effect of several peptides on TNF-α secretion from RAW264.7 cells in response to stimulation by CpG-ODN was studied. Each peptide was initially tested at 3 concentrations, 37 μM, 22.2 μM, and 11.1 μM. […] The peptides were then tested at 11.1 μM, 7.4 μM, and 3.7 μM (Table 3). […] Cell viability was examined for each peptide at the concentrations tested for TNF-α inhibition.
as §3

[5] = system: middle ear inflammation in BALB/c mice; experiment: Middle ear inflammation, heat-inactivated S. pneumoniae plus peptide injected into the middle ear; format: in vivo, mouse; conditions: heat-inactivated S. pneumoniae into middle ears of BALB/c mice
Experimental: Induction of otitis media: BALB/c (Bagg albino) mice, about 8-12 weeks of age, are anesthetized with a subcutaneous injection of xylazine & ketamine (about 0.1 mg/30 gm body weight) and their ears examined under the operating microscope to assure they are free of infection or perforation. One group of animals is injected with PBS (Phospho-buffered saline) in one ear and with about 10 μM of a peptide of Table 1 in the opposite ear, to determine the effect of peptide without added bacteria. A second group of animals receive about 5.0 μl of PBS plus heat-inactivated S. pneumoniae (about 10^9 CFU/ml) in one ear and about 5.0 μl of peptide (about 10 μM) plus heat-inactivated S. pneumoniae (about 10^9 CFU/ml) in the opposite ear. […] Inflammation is quantified by measuring 1) area of fluid present in the middle ear; 2) number of cells in middle ear fluid; and 3) thickness of the tympanic membrane (TM) taken at a point away from the injection site. Data are obtained from mice (n=18) injected with PBS alone for each of the histological parameters measured, to serve as a control group.
At the end of the experimental treatment, mice are killed and tissues collected for histology. […] This enables all histologic embedding, sectioning, staining, and analysis to be done on the two sides simultaneously to reduce any impact of processing variables on the subsequent quantitative analyses. […]

## DIVKLTVYDCIRRRRRRRRR [P13-R^9]
[1]
  pro-inflammatory mediators: reduce pro-inflammatory mediators
[2]; 7.4 uM peptide
  Percent Inhibition of TNF-α secretion: 0%
[2]; 11.1 uM peptide
  Percent Inhibition of TNF-α secretion: 13%
[2]; 22.2 uM peptide
  Percent Inhibition of TNF-α secretion: 69%
[3]
  cytokine secretion in response to TLR activation: effectively inhibits
[4]; 7.1 μM peptide
  Percent Inhibition of TNF-α secretion: 32%
[4]; 11.1 μM peptide
  Percent Inhibition of TNF-α secretion: 65%
[4]; 22 μM peptide
  Percent Inhibition of TNF-α secretion: 86%
[5]
  bacterial-induced inflammatory response in the middle ear: dramatically reduced
